According to US9907790B2, “Solid forms of an ASK1 inhibitor” (Gilead Sciences, Inc., priority 2014, dated 2018):

Columns and labels:
[1] = High humidity stress test at 75% RH/RT; assay type: physicochemical
[2] = Stable form screen of Compound I (suspension in solvents at RT, solids analysed by XRPD); assay type: physicochemical; details: starting from Compound I Form I, suspended in DCM at RT
Method: Compound I Form I was suspended with stirring in capped glass vials at RT. Samples from the suspensions were centrifuged/filtered and the isolated solids and liquids were analyzed. Solids were analyzed by XRPD and liquids were analyzed for solubility by […]. Sampling and analysis were performed after one day and greater than fourteen days.

24 Hour XRPD [2]	Compound	deliquescence in high humidity stress test [1]	14+ Day XRPD [2]
–	5-(4-cyclopropyl-1H-imidazol-1-yl)-N-(6-(4-isopropyl-4H-1,2,4-triazol-3-yl)pyridin-2-yl)-2-fluoro-4-methylbenzamide edisylate [Compound I Edisylate Form I]	did not show any evidence of deliquescence	–
–	5-(4-cyclopropyl-1H-imidazol-1-yl)-N-(6-(4-isopropyl-4H-1,2,4-triazol-3-yl)pyridin-2-yl)-2-fluoro-4-methylbenzamide gentisate [Compound I Gentisate Form II]	did not show any evidence of deliquescence	–
–	5-(4-cyclopropyl-1H-imidazol-1-yl)-N-(6-(4-isopropyl-4H-1,2,4-triazol-3-yl)pyridin-2-yl)-2-fluoro-4-methylbenzamide glutarate [Compound I Glutarate Form I]	did not show any evidence of deliquescence	–
–	5-(4-cyclopropyl-1H-imidazol-1-yl)-N-(6-(4-isopropyl-4H-1,2,4-triazol-3-yl)pyridin-2-yl)-2-fluoro-4-methylbenzamide propyl gallate [Compound I Propyl Gallate Form I]	did not show any evidence of deliquescence	–
–	CCS(=O)(=O)O.Cc1cc(F)c(C(=O)Nc2cccc(-c3nncn3C(C)C)n2)cc1-n1cnc(C2CC2)c1 [Compound I Esylate Form I, 5-(4-cyclopropyl-1H-imidazol-1-yl)-N-(6-(4-isopropyl-4H-1,2,4-triazol-3-yl)pyridin-2-yl)-2-fluoro-4-methylbenzamide esylate]	did not show any evidence of deliquescence	–
mixture of Forms II and V	Cc1cc(F)c(C(=O)Nc2cccc(-c3nncn3C(C)C)n2)cc1-n1cnc(C2CC2)c1 [Compound I Form I, 5-(4-cyclopropyl-1H-imidazol-1-yl)-N-(6-(4-isopropyl-4H-1,2,4-triazol-3-yl)pyridin-2-yl)-2-fluoro-4-methylbenzamide]	–	mixture of Compound I Form II and Compound I Form V
–	Cc1cc(F)c(C(=O)Nc2cccc(-c3nncn3C(C)C)n2)cc1-n1cnc(C2CC2)c1.O=C(O)/C=C/C(=O)O [Compound I Fumarate Form I, 5-(4-cyclopropyl-1H-imidazol-1-yl)-N-(6-(4-isopropyl-4H-1,2,4-triazol-3-yl)pyridin-2-yl)-2-fluoro-4-methylbenzamide fumarate]	did not show any evidence of deliquescence	–
–	Cc1cc(F)c(C(=O)Nc2cccc(-c3nncn3C(C)C)n2)cc1-n1cnc(C2CC2)c1.O=C(O)CO [Compound I Glycolate Form I, 5-(4-cyclopropyl-1H-imidazol-1-yl)-N-(6-(4-isopropyl-4H-1,2,4-triazol-3-yl)pyridin-2-yl)-2-fluoro-4-methylbenzamide glycolate]	did not show any evidence of deliquescence	–
–	Cc1cc(F)c(C(=O)Nc2cccc(-c3nncn3C(C)C)n2)cc1-n1cnc(C2CC2)c1.Cl [Compound I HCl Form I, 5-(4-cyclopropyl-1H-imidazol-1-yl)-N-(6-(4-isopropyl-4H-1,2,4-triazol-3-yl)pyridin-2-yl)-2-fluoro-4-methylbenzamide hydrochloride]	did not show any evidence of deliquescence	–
–	Cc1cc(F)c(C(=O)Nc2cccc(-c3nncn3C(C)C)n2)cc1-n1cnc(C2CC2)c1.O=C(O)C(O)C(O)C(=O)O [Compound I L-Tartrate Form I, 5-(4-cyclopropyl-1H-imidazol-1-yl)-N-(6-(4-isopropyl-4H-1,2,4-triazol-3-yl)pyridin-2-yl)-2-fluoro-4-methylbenzamide L-tartrate]	did not show any evidence of deliquescence	–
